US5972357A, “Healthy foods and cosmetics” (Kikkoman Corporation, priority 1996, dated 1999)

What was measured:
[1] = system: bovine serum albumin; assay: Maillard reaction inhibiting activity (bovine serum albumin/D-fructose); settings: 0.1 mM, 37° C., 5 days, pH 7.4
Procedure: A solution containing bovine serum albumin (4 mg/ml), 500 mM D-fructose and 200 mM potassium phosphate buffer (pH 7.4) was aseptically prepared. To the solution was added 0.1 mM of a test substance. The substance insoluble in water was added as an ethanolic solution so as the final concentration of ethanol to be less than 1%. After incubation of these solutions at 37° C. for 5 days, equivalent volume of a cold 10% trichloroacetic acid solution was added to the solution to precipitate proteins. The precipitate was collected by centrifugation, further washed with a cold 5% trichloroacetic acid solution, and dissolved again in a 200 mM potassium phosphate buffer. The solution was diluted appropriately with distilled water, and the fluorescence intensity at 425 nm was measured with an excitation wave length at 350 nm in a fluorescence spectrophotometer (Shimadzu Seisakusho, Ltd.). The inhibition activity was calculated from the following equation.
Inhibition activity (%)=(Fc-Fs)/(Fc-Fb)×100
Fs: fluorescence intensity in the presence of test substance;
Fc: fluorescence intensity in the absence of test substance;
Fb: fluorescence intensity in the absence of fructose.

[2] = anti-oxidation activity in a lipid oxidation process promoted by a metal ion (copper sulfate); settings: 5 μM copper sulfate added; lesser ratio = stronger
Procedure: The anti-oxidation activities was evaluated according to the method by A. Ben Aziz et al. (see Phytochemistry, 10, 1445, 1971). That is to say, an emulsion of linoleic acid and β-carotene was first prepared with Tween 20 (Sigma) and adjusted to pH 7.0 with 0.1 M trishydroxyaminomethane-hydrochloride. To the emulsion was added 0.0005% of a substance to be tested, and the mixture was reacted at 25° C.
During the reaction, the color degradation of β-carotene in association with the autoxidation of linoleic acid was measured with the passage of time as the decreased value of the optical density at 460 nm with a spectrophotometer.
The substance to be tested was a garcinal preparation obtained in Referential Example 1, and vitamin E and (+)-catechin were used as Comparative Example. The antioxidant activity was measured as a ratio of the decreasing rate of absorbance in the presence of the substance to be tested to the decreasing rate of absorbance in the absence of the antioxidant. That is, the substance is judged to have an antioxidant activity when the ratio is less than 1, and thus it is predicated that the lesser the ratio, the stronger the antioxidant activity.
The oxidation process of linoleic acid in Experimental Example 1 is promoted by a metal ion. If 5 μM of copper sulfate is added to the reaction system, the color-degradation rate of β-carotene is promoted by about 30%. When garcinol was added to this system, the ratio of the decreasing rate of absorbance was 0.57. In this connection, it was 0.13 for vitamin E and 0.84 for (+)-catechin.

[3] = system: Epstein-Barr virus early antigen (EBV-EA); assay: EBV-EA induction inhibiting test (tumor promotion inhibition); assay type: cell-based, human lymphoblasts (Raji); settings: Homo sapiens, Raji; 8 μg/ml; 3 mM n-butyric acid, 50 nM TPA, 37° C., 48 hours; read-out: suppression of the induction of EBV-EA
Procedure: The effect of inhibiting the tumor promotion was evaluated as follows mainly according to the EBV-EA induction inhibiting test described by Y. Ito et al.
(§1) The EBV potentially infected human lymphoblasts (Raji) were first prepared in a concentration of 5×10^5 cell/ml, and cultured in an RPMI-1640 medium to which 3 mM n-butyric acid (inducer) and 50 nM TPA (12-O-tetradecanoylphorbol-13-acetate) (promoter) were added in an atmosphere of 5% carbon dioxide and 95% air under at a temperature of 37° C. for 48 hours. The cells in which EBV-EA had been induced were detected microscopically by indirect immunofluorescence with the serum of a nasopharyngeal carcinoma (NPC) patient. In this system, various concentrations (8 μg/ml, 40 μg/ml, and 200 μg/ml) of the test substance (garcinol sample shown in Referential Example 1) dissolved in DMSO (dimethylsolfoxide) were added together with the promoter to the cells. The activity of suppressing the induction of the Epstein-Barr virus early antigen was defined as the decreasing rate of the cells in which EBV-EA had been induced.

[4] = system: mice; set-up: species or system ICR/crj male mice; settings: mouse, in vivo
Procedure: ICR/crj male mice (5 week-old) having a weight of 29-32 g, each group comprising 5 animals.
Toxicity test by single administration was carried out in accordance with Guidelines of the Toxicity Test Method for Pharmaceuticals (Nichi-Yaku-Shin No. 118, released on Feb. 15, 1984, Notice of Second Section Manager of Examination of Pharmaceutical Affairs Bureau in Ministry of Health and Welfare to the Managers of Hygiene Division of Prefectures).
Garcinol was suspended into a physiological saline in a concentration of 30 mg/ml, and the suspension was administered orally to mice at a dose of 0.5 ml per 30 g of body weight (500 mg/kg of body weight) for observation for 14 days.

[5] = system: gastric ulcer; assay: anti-ulcer test against stress ulcer (restrained immersion into water); assay type: in vivo, Wistar/ST male rats; settings: 200 mg/kg oral
Procedure: Gastric ulcer was induced in Wistar/ST male rats having a weight of about 200 g (6 w) by the stress of restrained immersion into water and the anti-ulcer effects of the test samples were examined in the following groups to which test samples were administered.
Each group comprises six rats.
Group 1: (control) physiological saline
Group 2: (comparative) cetraxate hydrochloride 200 mg/kg
Group 3: (the present invention) garcinol 200 mg/kg
In this connection, the test samples in the control, comparative group and the present invention group were prepared in the same manner as in Experimental Example 9.
Rats having fasted for 24 hours were locked up in a restrained dipping cage after 30 minutes from the oral administration of respective test samples. Next, rats were stressed by dipping the cage into water at 23° C. for 7 hours, and bleeded to death under anesthetization with nembutal, and stomach was isolated. A phosphate buffer (10 ml) containing 10% formalin was injected into the stomach, which was cut open after 10 minutes, and the length of lesion caused in the glandular stomach portion was defined as the lesion index, which was measured in the mm unit to evaluate the anti-ulcer effect.
The method for calculating the suppression rate (%) and the meaning of it has been described in Experimental Example 9.

[6] = survival rate of the cells in the EBV-EA induction inhibiting test; assay type: cell-based; settings: human, raji cells, 8 μg/ml
Procedure: as §1

## C=C(C)[C@@H](CC=C(C)C)C[C@@]12C[C@@H](CC=C(C)C)C(C)(C)[C@@](CC=C(C)C)(C(=O)C(C(=O)c3ccc(O)c(O)c3)=C1O)C2=O [garcinol]
[1]
  Maillard reaction inhibition activity: 97%
[2]
  ratio of the decreasing rate of absorbance (antioxidant activity with metal ion): 0.57
[3]
  inhibition at 8 µg/mL: 58.2%
[4]
  microscopic disorders in tissues or organs (autopsy): no microscopic disorders in tissues or organs were observed
[5]; restrained water immersion 23° C., 7 hours, control 44.20 ± 18.10
  Length of ulcer: 17.60 ± 9.96 mm
[5]; stress ulcer, vs. control
  Suppression rate: 60.2%
[6]
  viability at 48 h: ≥ 80%
